Data set [1] has as its system Human neural stem cells (H9-Derived). Description: Human neural stem cell differentiation (MAP2, GFAP; immunofluorescence and WB). The data set is classed as cell-based. To be noted: 10 mM, 14 days. The procedure: These cells were then permeabilized, washed, incubated with mouse anti-MAP2 monoclonal antibody or rabbit anti-GFAP polyclonal antibody overnight at 4° C., stained with Alexa Fluor® 488 (green) and Alexa Fluor® 594 (red), and visualized by confocal microscopy. DAPI (blue) was used to detect nuclear DNA.

Data set [2] concerns Wild-type mouse neuroblastoma (N2a) cells. Description: Neuronal cell differentiation in N2a cells (β-tubulin III, phospho-synapsin I; immunofluorescence and WB). The data set is classed as cell-based. To be noted: 10 mM, 24 h. The procedure: These cells were then permeabilized with 0.05% Triton X-100 for 5 min, washed, and incubated with mouse anti-β-tubulin III monoclonal antibody ([…]™), and rabbit anti-phospho-synapsin I (Ser^62, Ser^67) polyclonal antibody (EMD Millipore) overnight at 4° C. Alexa Fluor® 488 Goat anti-mouse IgG (green) and Alexa Fluor® 594 Donkey anti-rabbit IgG (red, Life Technologies) were used to detect β-tubulin III and phospho-synapsin I signals respectively. Confocal images were taken by Olympus Fluoview™ FV1000 laser scanning confocal microscope (Tokyo, Japan).

Data set [3] deals with GSK3β. Description: GSK3β Tyr216 phosphorylation in brain homogenates of Fmr1 KO mice (WB). The following applies: 28 mg/kg/day i.p., 5 days. The data set is classed as in vivo, mouse. On the procedure:
(§1) (6A) Mouse brain homogenates were then prepared from cerebral cortex and hippocampus and analyzed by WB with specific pGSK3α^Tyr279, pGSK3β^Tyr216 and total GSK antibodies.

Data set [4] deals with GSK3β. Nature of the data set: GSK3β phosphorylation in Fmr1 KO mouse embryonic fibroblasts (WB). The following applies: 60 min. The data set is classed as cell-based. The procedure: FIGS. 5A-5B. […] Many neurodegenerative disorders, including FXS, have been associated with enhanced GSK activity (14-16). Fmr1 KO mouse embryonic fibroblasts (Fmr1 KO MEF) have elevated levels of stimulatory GSK3β ([…]) phosphorylation compared to wild-type MEF (both cell lines kindly provided by Dr. David Nelson, Baylor College of Medicine). […] Cell lysates were then prepared and subjected to WB analysis using specific phospho-GSK3β (pGSK3β)^Tyr216, pGSK3β^Ser9 and total GSK antibodies.

The next data set deals with GSK3α. Nature of the data set: GSK3α Tyr279 phosphorylation in brain homogenates of Fmr1 KO mice (WB). The data set is classed as in vivo, mouse. The following applies: 28 mg/kg/day i.p., 5 days. On the procedure:
as §1

Data set [5] can be described thus: In vivo plasma and brain lithium pharmacokinetics after oral gavage (AAS). More on the design: species or system Sprague-Dawley rats. To be noted: for time of plasma lithium peak: sampled at 2, 24, 48, 72 h; for plasma and brain lithium level profile after oral dosing: summary of FIG. 2, up to 48 h.
The test system of data set [6] is Fmr1 KO mice. The following applies: dfmr1 mutant Drosophila and Fmr1 KO mice; cited from earlier work.
For data set [7], the system named is Fmr1 KO mice. To be noted: cited from earlier work.
The mark [8] stands for this setting: male rats, 4 mEq/kg lithium, oral gavage.

For the molecule `O=C(O)[C@@H]1CCCN1` [1-proline, L-proline], in data set [1], the “GFAP expression (gliogenesis; immunofluorescence and WB, GFAP to β-actin) vs PBS” value (“GFAP expression … vs PBS” below) was “no significance difference”; the “MAP2 expression (immunofluorescence and WB, MAP2 to β-actin) vs PBS” value (“MAP2 expression … vs PBS” below) is listed as “no significance difference”. For the same molecule, the “neuronal cell differentiation (β-tubulin III and phospho-synapsin I immunofluorescence and WB) vs PBS” value (from here on “neuronal cell differentiation”) in data set [2] is “no significant difference”.
In the case of `O=C(O)[C@@H]1CCCN1.O=C([O-])c1ccccc1O.[Li+]` [LISPRO], the “pGSK3β Tyr216 level in cerebral cortex and hippocampus” value in the data set with GSK3β [3] is recorded as “reduced these levels”. Moreover, the “stimulatory pGSK3β Tyr216 level” value in the data set on GSK3β [4] (Fmr1 KO MEF, 40 μM) is given as “decreased”. Also, the “total GSK3β level” value with GSK3β [4] (Fmr1 KO MEF, 10, 20 or 40 μM) is reported as “unchanged”. The “inhibitory pGSK3β Ser9 level” value in the data set with GSK3β [4] (Fmr1 KO MEF, starting at 10 μM) is reported as “increased”. Also, the “pGSK3α Tyr279 level in cerebral cortex and hippocampus” value with GSK3α is “reduced these levels”. The “plasma lithium level at 2 h” value in data set [5] (male rats, 4 mEq/kg lithium, oral gavage, 2 h) is recorded as “elevated”. Besides, in data set [5] (setting [8]), the “plasma lithium level at 48 h” value is given as “remained elevated” and the “time of plasma lithium peak” value is reported as 24 h. Further, the “plasma lithium level at 72 h” value in data set [5] (male rats, 4 mEq/kg lithium, oral gavage, 72 h) was “almost undetectable”. In addition, the “brain lithium levels at 24 and 48 h” value in data set [5] (male rats, 4 mEq/kg lithium, oral gavage, brain, 24 and 48 h) is listed as “steady brain levels”. Also, the “plasma and brain lithium level profile after oral dosing” value in data set [5] was “nearly steady levels of lithium in plasma and brain for up to 48 h without the initial spike”.
As to `O=C([O-])[O-].[Li+].[Li+]` [Li2CO3, lithium carbonate], in data set [1], the “GFAP expression … vs PBS” value is “no significance difference”; the “MAP2 expression … vs PBS” value is given as “no significance difference”. Also, in data set [2], the “neuronal cell differentiation” value is reported as “no significant difference”. In data set [5] (setting [8]), the “plasma lithium level at 48 h” value is given as “nearly undetectable” and the “time of plasma lithium peak” value worked out at 24 h. Also, the “brain lithium level at 24 h” value in data set [5] (male rats, 4 mEq/kg lithium, oral gavage, brain, 24 h) was “concomitant spike”. Besides, the “plasma and brain lithium level profile after oral dosing” value in data set [5] was “spike in plasma and brain lithium levels at 24 h with considerably lower or undetectable levels at 48 h”.
For `[Cl-].[Li+]` [LiCl], in data set [1], the “GFAP expression … vs PBS” value is on record as “no significance difference”; the “MAP2 expression … vs PBS” value is “no significance difference”. Besides, the “neuronal cell differentiation” value in data set [2] was “no significant difference”.
For `Cn1cc(C2=C(c3ccc(Cl)cc3Cl)C(=O)NC2=O)c2ccccc21` [SB-216763], the “FXS behavioral phenotypes (hyperactivity, social and cognitive impairment)” value in the data set with Fmr1 KO mice [6] is “reverse these behavioral deficits”.
Consider `Cn1sc(=O)n(Cc2ccccc2)c1=O` [TDZD-8], for which, in the data set with Fmr1 KO mice [6], the “FXS behavioral phenotypes (hyperactivity, social and cognitive impairment)” value is “reverse these behavioral deficits”.

B1: BDNF: brain derived neurotrophic factor, a potent modulator of learning and memory, synaptic plasticity and neurogenesis (protein, UniProt P23560 19-247, looked up)
Neurotrophic factor BDNF …: APMKEANIRGQGGLAYPGVRTHGTLESVNGPKAGSRGLTSLADTFEHVIEELLDEDQKVRPNEENNKDADLYTSRVMLSSQVPLEPPLLFLLEEYKNYLDAANMSMRVRRHSDPARRGELSVCDSISEWVTAADKKTAVDMSGGTVTVLEKVPVSKGQLKQYFYETKCNPMGYTKEGCRGIDKRHWNSQCRTTQSYVRALTMDSKKRIGWRFIRIDTSCVCTLTIKRGR
In the case of B1, the “impairment in hippocampal long term potentiation” value in the data set on Fmr1 KO mice [7] is “fully restored”.

The values are drawn from patent US10098909B2 (UNIVERSITY OF SOUTH FLORIDA, priority 2016, dated 2018).
